# In PMC2951365, “Structural Transformation of the Tandem Ubiquitin-Interacting Motifs in Ataxin-3 and Their Cooperative Interactions with Ubiquitin Chains” (PLoS ONE, 2010):
# Where two headings read alike, the source gives them in different places.
# Assays:
# Ub [1] = target: T1, Ub (Homo sapiens, UniProt P0CG48); settings: cited from earlier work
# T1 construct: gene UBC; 15N-labeled Ub; cDNA encoding Ub cloned into pET-3a, expressed in E. coli
# Source text: (§1) There are about 20∼50 residues inserted in between two UIMs of S5a and Vps27, but the linker region between the two UIMs of AT3 is very short. These adjoining UIM motifs in AT3 raise a possible cooperativity for binding with Ub. Our structure determination and titration experiments reveal that the individual UIMs of AT3 can bind Ub respectively but with lower affinities. […] It seems that the cooperative interaction of AT3-UIM12 with diUb or polyUb is more remarkable than that with monoUb (Supplemental Fig. S7). […] Therefore, the altered affinities of AT3-UIM12 for monoUb or diUb may result from structural transformation of the linker region. The backbone dynamics provides further evidence for the conformational change in the linker region, which possibly allows cooperative interaction with Ub.
# Ub [2] = settings: cited from earlier work
# Source text: as §1
# Ub [3] = target: T1, Ub; settings: read-out: K D,app
# Method: ^15N-Ub at a molar concentration of ∼0.2 mM was titrated with increasing amount of UIM peptides or its mutants. A series of ^1H-^15N HSQC spectra of Ub were obtained and the chemical shift changes were measured for each molar ratio. […] The combined average chemical shift changes (Δδave) were calculated as Δδave = [(0.2*ΔδN)^ 2 + (ΔδHN)^ 2]^1/2, where ΔδHN and ΔδN are the chemical shift changes in the ^1H and ^15N dimensions, respectively. […] The dissociation constant (K D) for the UIM-Ub binding was obtained by fitting the titration curves [61].
# ^15N- or ^15N/^13C-labeled samples (∼1 mM) were dissolved in a PBS buffer (20 mM phosphate, 100 mM NaCl, pH 6.5) containing 8% or 100% D2O and 0.02% (w/v) NaN3. […] All the NMR experiments were performed at 25°C on a Varian UNITY INOVA 600 MHz spectrometer equipped with three RF channels and a triple-resonance pulsed-field gradient probe.
Substance,Kd (Ub [1]),Kd (Ub [2]),other results
S5a UIM1 (210–230 in alignment); construct not told,~350 µM,,
S5a UIM2 (281–301 in alignment); construct not told,73 µM,,
Vps27p UIM1 (257–277 in alignment); construct not told,,277 µM,
Vps27p UIM2 (300–320 in alignment); construct not told,,117 µM,
ataxin-3 residues 335–354; GB1 fusion [AT3-UIM3],,,Kd (Ub [3]): > 3000 µM
